Converted amounts (≈) assume the structure as drawn. Read-outs that look alike come from different tables or passages of the source.
Experiments:
[1] = B. L. OSER et al. (1965); cited from earlier work
CD4 lymphocyte [2] = experiment: Treatment of four patients with advanced AIDS, CD4 lymphocyte counts (FIG. 1); type: in vivo, human; details: all dosage regimens combined
Description: Four patients with advanced AIDS have been treated with ADA. One patient has been treated during two periods, i.e., treated was restarted after a return to baseline subsequent to the withdrawal of ADA. The patients received capsules containing 500 mg. The dosage regimen was 500 mg three times a day except during the second treatment period in the patient who is also the patient of Example 27 where the dosage regimen was increased to 1 gram three times a day. The graph represents the median value of all CD4 lymphocyte counts measured in the patients. All dosage regimens are combined. There were five periods of ADA treatment. Due to the small number of values, medians were calculated by carrying forward the last values of the patients with no data point in the corresponding treatment week. Values of patients who dropped out of the study were carried forward. The linear regression is represented by the equation Y=77.2 +4.8 X, where Y is the absolute CD4 […] and X is the number of weeks after start of ADA treatment. The correlation coefficient is 0.79.

[3] = target: T1, HIV-1 reverse transcriptase (RT) (Human immunodeficiency virus type 1 BH10, UniProt P03366); experiment: Acellular in-vitro inhibition of reverse transcriptase (polyrC-oligodG template-primer-complex); type: biochemical
T1 construct: mature RT from Gag-Pol polyprotein (pr160Gag-Pol)
Description: ADA in a liquid medium was tested in an acellular in-vitro system for any inhibitory effect on HIV-1 reverse transcriptase (RT) using the polyrC-oligodG template-primer-complex. […] From concentrations of 60 μgr/ml upward, there is a 50% inhibition of RT. […] Therefore, ADA inhibits HIV replication with an as yet unknown but original mode of action.

clinical [4] = details: human, in vivo, po
pepsin = experiment: Inhibition of pepsin; type: biochemical
[5] = Single oral doses to healthy volunteers, tolerability and safety; type: in vivo, human
Description: Pharmaceutical grade ADA in gelatin capsules, each containing 500 mg, was administered as single oral doses to healthy volunteers to determine its tolerability and safety. […] These changes were reversible within 4-6 hours from intake.

T4 lymphocytes [6] = experiment: Treatment of three patients presenting different stages of AIDS; type: in vivo, human; details: first patient (final phase), 1500 mgr a day, day 30; day 0: 24 cells
CD4 lymphocyte [7] = experiment: Treatment of one patient with stage IV AIDS
HIV-1 strain IIIB /LAI = experiment: Inhibition of HIV-1 replication in acutely infected PBLs (p24 ELISA); type: cell-based; details: for Protection: "Toxic" means that the cells are destroyed
Description: A new assay was conducted by the AIDS laboratory of the REGA Institute for Medical Research of the Katholieke Universiteit of Leuven.
1,1'-azobisformamide was purchased from Riedel de Haen and stored in a refrigerator (4°-8° C.) under light-protected conditions. Dilutions were prepared in order to obtain concentrations of 0.4 μg/ml, 2 μg/ml, 10 μg/ml, 50 μg/ml and 250 μg/ml.
Peripheral Blood Lymphocytes (PBLs) were freshly collected from a single donor. PBLs were activated by phytohemagglutinin at 2 μg/ml during 3 days, and then cultured in the presence of IL-2 for 1 week.
HIV-1 strain IIIB /LAI was provided by R. C. Gallo (Popovic M. et al, Science 1984, 224:497-500). Stocks were obtained from the culture supernatants of HIV-1 infected cell lines (HUT 78/IIIB /LAI).
The inhibitory effects of 1,1'-azobisformamide on the replication of strain IIIB /LAI in PBLs were monitored by the detection of HIV-1 p24 core antigens. PBLs were incubated with an excess of strain IIIB /LAI at 37° C. for 60 min. All cells were washed once with RPMI 1640 medium. Thereafter cells were plated at 1×10^6 cells per ml in the presence of various concentrations of the test compound. Seven days after plating PBLs, p24 antigens were detected by enzyme-linked immunosorbent assay (ELISA) (HIV-1 p24 Core Profile ELISA from Du Pont).
This method comprises measuring the concentration of the viral antigen p24 in the supernatant, i.e., the concentration of free viruses produced by replication of the viruses present in the infected cells. This measure is expressed as a measure of protection (see Table I below), where [formula]

T4 lymphocytes [8] = experiment: Treatment of three patients presenting different stages of AIDS; type: in vivo, human
Description: Three sound volunteers were treated for 30 days with 1500 mgr a day of a azobisformamide in three portions of 500 mgr.
On the other handy three patients presenting different stages of AIDS were also treated with azobisformamide in the same dosages as he sound volunteers.
The first patient in final phase presented at least 30 T4 lymphocytes/mm^3, abundant diarrheas and a complete space-time disorientation.
The second patient in "ARC" phase presented a lymphocytar T4 population of 190/ mm^3, in constant decrease, as well as occasional diarrheas and anal herpes.

HIV = experiment: Inhibition of HIV replication, summary over strains and cells; type: cell-based, HIV-1 and HIV-2; details: Human immunodeficiency virus 1, p24, 7 to 8 days after infection
clinical [9] = details: human, in vivo, po; remark: listed apart in the source
[10] = single oral doses, one volunteer

For `NC(=O)N=NC(N)=O` [ADA, 1,1'-azobisformamide], the “toxical effect on Supt-1 cells” value (Supt-1 cells) is listed as “No toxical effect has been noted”, the “toxicity for the humans” value [1] is listed as “absence of toxicity” and the “correlation coefficient of the CD4 regression” value (CD4 lymphocyte [2]) is listed as 0.79. The RT inhibition ([3]; at concentrations up to the IC90) was “not an RT-inhibitor”, the “inhibition of RT” value ([3]; from concentrations of 60 μgr/ml upward) was 50% and the Tmax (clinical [4]) was 1 to 1.5 h. For the same compound, the inhibition of pepsin (pepsin) was “does not inhibit pepsin”, the “adverse effects on hematological and chemical parameters in blood and urine” value ([5]; 40 mg/kg or 60 mg/kg) was “No adverse effects were observed” and the “adverse effects on blood pressure, pulse, or respiratory rate” value ([5]; any of the tested dosages) was “No adverse effects were observed”. For the same compound, the “glutathione in peripheral blood” value ([5]; from doses of 40 mg/kg) was “slightly depressed”, the “methemoglobin reduces [reductase] in peripheral blood” value ([5]; from doses of 40 mg/kg) was “slightly depressed” and the “reversibility of the changes, time from intake” value ([5]; from doses of 40 mg/kg) was 4 to 6 h. The tolerability ([5]; single oral dosages of up to 60 mg per kg body weight) was “well tolerated”, the methemoglobin [5, 10] was “dose-related increase in methemoglobin” and the “return of methemoglobin to normal” value [5, 10] was “within half an hour”. For the same compound, the “time of methemoglobin Cmax after intake” value [5, 10] was 1 to 1.5 h, the T4 lymphocytes (T4 lymphocytes [6]) was 49 cells/mm^3 and the “absolute CD4 lymphocyte count” value (CD4 lymphocyte [7]; 500 mg three times a day, 26-week period, from 77) was 144 cells/mm^3. The diarrhea (CD4 lymphocyte [7]; 12 weeks after restarting ADA) was “free of diarrhea”, the weight (CD4 lymphocyte [7]; 12 weeks after restarting ADA) was “gained considerable weight” and the “weight and diarrhea after withdrawal of ADA” value (CD4 lymphocyte [7]; RT medication without ADA) was “lost weight and developed intractable diarrhea”. The “CD4 lymphocyte count after withdrawal of ADA” value (CD4 lymphocyte [7]; RT medication without ADA, within two months) was “returned to baseline”, the CD4 lymphocyte count (CD4 lymphocyte [7]; fifteen weeks after restarting ADA) was 190 cells/mm^3 and the “adverse effects that could be drug-related” value (CD4 lymphocyte [7]; occasional increases up to 2 grams three times a day) was “No adverse effects”. The CD4 lymphocyte count (CD4 lymphocyte [7]; restart at 1 gram three times a day, within two weeks) was 144 cells/mm^3, the Protection (HIV-1 strain IIIB /LAI; 50 μg/ml) was “Toxic” and the Protection (HIV-1 strain IIIB /LAI; 250 μg/ml) was “Toxic”. For the same compound, the inhibition at 0.4 µg/mL (HIV-1 strain IIIB /LAI; Human immunodeficiency virus 1, IIIB, 168 h, 0.4 μg/ml, read-out: Protection) was 15.2%, the inhibition at 2 µg/mL (HIV-1 strain IIIB /LAI; Human immunodeficiency virus 1, IIIB, 168 h, 2 μg/ml, read-out: Protection) was 45.8% and the inhibition at 10 µg/mL (HIV-1 strain IIIB /LAI; Human immunodeficiency virus 1, IIIB, 168 h, 10 μg/ml, read-out: Protection) was 77.6%. The IC50 (HIV-1 strain IIIB /LAI; Human immunodeficiency virus 1, PBLs acutely infected with IIIB /LAI) was 2.47 µg/mL (≈ 21.3 µM), the coherent talking (T4 lymphocytes [8]; first patient, day 30) was “recovered their possibility of coherent talking” and the diarrhea (T4 lymphocytes [8]; first patient, day 30) was “the diarrhea has ended”. For the same compound, the walking autonomy (T4 lymphocytes [8]; first patient, day 30) was “limited walking autonomy”, the “lymphocytes presenting the T4 receptor” value (T4 lymphocytes [8]; first patient, day 30, day 0: 5%) was 9% and the “lymphocytes, % of white corpuscules” value (T4 lymphocytes [8]; first patient, day 30, day 0: 17%) was 20%. The white corpuscules (T4 lymphocytes [8]; first patient, day 30, day 0: 1850) was 2600, the “improvement of T4 lymphocytes” value (T4 lymphocytes [8]; first patient, day 30 vs day 0) was 100% and the T4 lymphocytes (T4 lymphocytes [8]; second patient ("ARC" phase), day 30, before: 190) was 280 T4 lymphocytes/ mm^3. The “diarrhea and anal herpes” value (T4 lymphocytes [8]; second patient, day 30) was “the diarrhea had completely disappeared as well as the anal herpes”, the T4 lymphocytes (T4 lymphocytes [8]; third patient (sound seropositive), day 30, before: 350) was 440 T4 lymphocytes/ mm^3 and the IC50 (HIV; read-out: IC50 range) was 1.6 to 14.8 µg/mL (≈ 13.8 to 127 µM). For the same compound, the IC50 (HIV; read-out: median IC50) was 8 µg/mL (≈ 68.9 µM), the flu-like syndrome (140 mg/kg, from 6 hours after intake, lasted several hours) was “flu-like syndrome was observed” and the “adverse effects such as changes in hemodynamic parameters or subjective well-being” value (lower doses (35 and 70 mg/kg)) was “No adverse effects”. It also gave an MTD (clinical [9]) of 140 mg/kg.

From patent US5585367A (priority 1990, dated 1996)
